{"source": "patent US6596712B2", "about": "“Treatment of carcinomas using squalamine in combination with other anti-cancer agents or modalities” (Genaera Corporation, priority 1996, dated 2003)", "key": {"[1]": {"system": "9L and C6 rat glioma cells, human H80 glioma cells, VX2 rabbit carcinoma cells", "assay": "Proliferation of tumor cell lines", "type": "cell-based", "description": "In conducting this in vitro analysis, the following cell lines were tested: (a) bovine retinal endothelial cells; (b) 9L and C6 rat glioma cells; (c) human H80 glioma cells; and (d) VX2 rabbit carcinoma cells (the same type as the tumors implanted in the rabbit corneal micropocket assay test described above). The endothelial mitogen which was used in this analysis was VEGF at a concentration of 20 ng/ml.\nThe cells were allowed to attach overnight to tissue culture plates containing an optimized growth media. Following attachment, the cells were exposed to solvent only or 5 to increasing concentrations of squalamine (0, 10, 20, 30, 60, and 90 μg squalamine/ml). Cell growth was counted daily for three days using a Coulter Counter. A total of 10,000 cells per well were plated and each experimental concentration was tested in quadruplicate. The results were then averaged. The bovine retinal endothelial cells were grown and treated in an identical manner to the other cell lines, except that the growth of these cells was measured after the addition of 20 ng/ml of human recombinant VEGF to the cells prior to the squalamine treatment.\nPercentage endothelial cell growth inhibition (%I) was determined by the following equation: [formula]"}, "[2]": {"system": "human MX-1 breast cancer line", "type": "in vivo", "description": "These documents each are entirely incorporated herein by reference. Squalamine was examined as adjunctive therapy following a single 200 mg/kg dose of cyclophosphamide. The cyclophosphamide was injected on day 14 following implantation of the tumor, at a time when the tumors measured 65-125 μl. […] The animals were then randomized to three treatment arms (each n=27): vehicle dosing only (Intralipid); squalamine given 10 mg/kg/day in Intralipid; and squalamine given 20 mg/kg/day in Intralipid for five days a week. Animals whose tumors exceeded 2 grams at any time during the experiment were euthanized. The experiment was continued for 90 days after initiating squalamine treatment to ensure that only mice experiencing long-term cures were still alive."}, "NHE1": {"target": "NHE1 (Homo sapiens, UniProt P19634)", "sequence (P19634 whole entry)": "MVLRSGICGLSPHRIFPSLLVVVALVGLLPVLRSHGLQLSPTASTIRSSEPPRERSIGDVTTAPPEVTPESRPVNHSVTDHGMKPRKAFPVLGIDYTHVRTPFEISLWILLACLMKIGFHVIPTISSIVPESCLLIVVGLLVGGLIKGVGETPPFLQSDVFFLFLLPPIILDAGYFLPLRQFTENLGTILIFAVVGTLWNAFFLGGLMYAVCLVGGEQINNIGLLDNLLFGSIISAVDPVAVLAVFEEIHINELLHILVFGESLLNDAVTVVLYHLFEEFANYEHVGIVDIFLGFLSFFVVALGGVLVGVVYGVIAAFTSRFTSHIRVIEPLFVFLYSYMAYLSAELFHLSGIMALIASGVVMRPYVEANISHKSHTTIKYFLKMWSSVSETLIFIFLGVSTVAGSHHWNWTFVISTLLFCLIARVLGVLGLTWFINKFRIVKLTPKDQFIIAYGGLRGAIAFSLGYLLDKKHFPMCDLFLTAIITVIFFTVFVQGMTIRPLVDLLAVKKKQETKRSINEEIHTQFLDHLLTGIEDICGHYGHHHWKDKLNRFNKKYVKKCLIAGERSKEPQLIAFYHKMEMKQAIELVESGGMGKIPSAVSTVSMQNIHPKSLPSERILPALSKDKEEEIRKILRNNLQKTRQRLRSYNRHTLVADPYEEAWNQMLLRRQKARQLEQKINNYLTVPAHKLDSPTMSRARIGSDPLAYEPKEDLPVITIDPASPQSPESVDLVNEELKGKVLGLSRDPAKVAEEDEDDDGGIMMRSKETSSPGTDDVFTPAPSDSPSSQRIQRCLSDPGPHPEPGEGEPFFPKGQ", "assay": "NHE activity in PS 120 fibroblasts transfected with human NHE1", "type": "cell-based", "parameters": "expressed in transfected cells; host or cells: PS 120 NHE-deficient fibroblasts", "conditions": "7 μg/ml squalamine; acid loaded cells", "description": "The following describes the test used to determine that squalamine inhibits NHE3, but not NHE1 or NHE2. NHE deficient fibroblast cells (PS 120) transfected with an individual human NHE gene were loaded with a pH sensitive dye 2′7′-bis(2-carboxyethyl)-5,6-carboxyfluorescein (BCECF). NHE activity was measured by spectrofluorometric methods using this dye and by amiloride sensitive isotopic ^22Na^+cellular uptake. The cells were acidified by exposure to ammonium chloride in the absence of sodium to eliminate sodium and deactivate the proton pumps. The ammonium chloride was washed out by exposing the cells to tetramethyl ammonium chloride in bicarbonate free medium. […] Sodium then was added back at various concentrations (see the abscissa of FIGS. 5a and 5b) to drive the antiporters (human NHE3 in FIG. 5a and human NHE1 in FIG. 5b). The antiporters were driven at different rates, as evidenced by the cellular pH change rate, depending on the amount of sodium added."}, "[3]": {"system": "brush border membrane vesicle (BBMV) NHE", "assay": "Brush border membrane vesicle (BBMV) NHE inhibition", "type": "biochemical", "conditions": "tissue pretreated; 30 minutes exposure"}, "[4]": {"system": "Syngeneic mammary carcinoma MCA-4 tumor cells", "assay": "MCA-4 mammary carcinoma tumor growth delay with radiation", "type": "in vivo, C3Hf/Kam male mice", "description": "Syngeneic mammary carcinoma MCA-4 tumor cells (5×10^5) were injected intramuscularly into the right legs of C3Hf/Kam male mice (4 months of age). When the tumors reached 6 mm in diameter, the mice were randomly assigned to receive: (a) no treatment, (b) squalamine alone (20 mg/kg/day b.i.d. for 11-14 days), (c) 15 Gy of gamma irradiation, or (d) squalamine plus 15 Gy of gamma rays. Tumor growth was followed until tumors reached at least 12 mm in diameter. The effect of squalamine on tumor radioresponse was determined by absolute and normalized tumor growth delays (AGD and NGD). AGD is defined as the time in days for tumors treated with radiation (or squalamine) to grow from 8 to 12 mm minus the time in days for untreated tumors to grow from 8-12 mm. NGD is defined as the time in days for tumors treated with both squalamine and radiation to grow from 8 to 12 mm minus the time in days for tumors treated with squalamine only to grow from 8 to 12 mm. An enhancement factor (EF) was determined as the ratio of NGD to AGD. The EF for squalamine with 15 Gy gamma rays calculated from the observed times for tumor growth (Table 8) is >1.5."}, "LNCaP cells": {"system": "LNCaP cells", "assay": "LNCaP xenograft post-orchiectomy (Example 6)", "type": "in vivo, athymic mice", "conditions": "20 mg/kg/day for six to ten weeks from castration", "source_text": "LNCaP cells admixed with Matrigelm were implanted subcutaneously in 52 athymic mice. Those that developed measurable tumors and sufficient elevations in serum prostate specific antigen (“PSA”) (measured using a standard commercially available kit such as from Abbott Diagnostics (St. Louis, Mo.)) underwent orchiectomy. Subsequent to castration, these animals were distributed among the four groups (1-4) outlined below: and an additional control cohort of mice which were castrated but never treated with squalamine.\nIn the majority of animals, PSA levels fell to zero at time of castration. By three weeks they began to rebound and continued to rise steadily until the animals succumbed or were sacrificed. In these same mice, tumor size tended to plateau at time of orchiectomy, before beginning to increase in size correspondingly with PSA rebound. The serum PSA curve and tumor volume measurements from two members of this last control cohort are illustrated in FIG. 15a and b, respectively.\nTen mice began treatment with squalamine concomitant with the fall in PSA after castration (Group 1). Of these, three never experienced a post-orchiectomy PSA nadir, and one experienced an early death, of unknown etiology. Six animals, however, were treated with squalamine (at 20 mg/kg/day) for a range of six to ten weeks. […]"}, "[5]": {"system": "human brain capillary endothelial cells", "assay": "Growth factor stimulated growth of human brain capillary endothelial cells", "type": "cell-based", "source_text": "Thus, as the tumor puts out a variety of different growth factors, squalamine has an inhibitory effect on several."}}, "data": [{"smiles": "CC(C)[C@@H](CC[C@@H](C)[C@H]1CC[C@H]2[C@@H]3[C@H](O)C[C@H]4C[C@@H](NCCCNCCCCN)CC[C@]4(C)[C@H]3CC[C@]12C)OS(=O)(=O)O", "note": "[Squalamine, squalamine]", "values": [{"measurement": "growth of H80, C6 and VX2 cell lines as percentage of control", "setting": "[1]; 30 μg/ml, 1, 2 and 3 days (FIG. 9)", "value": "not dramatically affected"}, {"measurement": "cell proliferation by all tumor lines", "setting": "[1]; 24 and 48 hours, up to 30 μg/ml", "value": "statistically unaffected"}, {"measurement": "rate of progression of the breast tumors", "setting": "[2]; squalamine 10 mg/kg/day after single 200 mg/kg cyclophosphamide, all times examined", "value": "significant (P<0.01) inhibition in the rate of progression of the breast tumors"}, {"measurement": "progression of the breast tumors", "setting": "[2]; squalamine 20 mg/kg/day after single 200 mg/kg cyclophosphamide, only at 30 days post-initiation", "value": "significant (P<0.05) delay in progression of the breast tumors"}, {"measurement": "long-term cure rate vs cyclophosphamide alone", "setting": "[2]; squalamine 20 mg/kg/day for five weeks after cyclophosphamide, 90 days", "value": "doubled the long-term cure rate"}, {"measurement": "tolerability of high dose", "setting": "[2]; squalamine 20 mg/kg/day, discontinued after five weeks", "value": "animal weight loss and potential toxicity concerns"}, {"measurement": "effect on human NHE1 antiporter (pH change rate)", "setting": "NHE1", "value": "no effective difference in the pH change rate"}, {"measurement": "inhibition of BBMV NHE", "setting": "[3]", "value": 51, "unit": "%"}, {"measurement": "AGD", "setting": "[4]; absolute tumor growth delay", "value": 0, "unit": "days"}, {"measurement": "Time to Grow From 8 to 12 mm", "setting": "[4]; squalamine 20 mg/kg/day b.i.d. for 11-14 days, 15 Gy gamma irradiation", "value": 6, "unit": "days"}, {"measurement": "tumor masses", "setting": "LNCaP cells", "value": "tended to diminish and, eventually, disappear"}, {"measurement": "growth stimulation induced by b-FGF, PDGFbb, scatter factor, conditioned tumor media, human brain cyst fluid", "setting": "[5]", "value": "interfere with growth stimulation"}]}]}
